The subject of the assay is A549 lung cancer cells. Briefly: Cellular uptake and intracellular drug release by confocal laser scanning microscopy. It is filed as cell-based. As to conditions: 20 h incubation. The protocol:
FIGS. 15A-15F show confocal microscopic images of A549cells after 20 h incubation with doxorubicin (15A-15C) or doxorubicin-CMG nanoparticles (15D-15F). […] Nuclei were stained with DAPI as a control (15A and […]). DAPI and doxorubicin images were merged for comparison (15C-15F).
To test the drug delivery capacity of CMG NPs, DOX was loaded into CMG nanoparticles by physical adsorption. The UV-Vis spectrum of DOX-CMG nanoparticles was used to confirm the loading of DOX onto CMG nanoparticles. […] DOX loading was confirmed by the presence of the characteristic absorbance peak of DOX-CMG at 485 nm (FIG. 12,b), which corresponded to the peak of free DOX (FIG. 12,c). The hydrodynamic diameter of DOX-loaded CMG nanoparticles was about 91 nm and was similar to the CMGs alone (FIGS. 5A-5F). The loading capacity of CMG nanoparticles for DOX was investigated by mixing a fixed concentration of CMG (2 mg/mL) with various initial DOX concentrations as shown in FIG. 13. […] The drug-release kinetics of DOX-CMG nanoparticles was determined at pH about 5.1 and about 7.4 (FIG. 14). […] To determine the effectiveness of the DOX-CMG nanoparticles in killing A549 cancer cells, cells were treated with DOX-CMG nanoparticles with increasing concentrations of DOX, or free DOX, for about 72 h and analyzed using the Presto Blue cell viability assay.

The values that follow come from patent US9675714B1, “Graphene based theranostics for tumor targeted drug/gene delivery and imaging” (University of South Florida, priority 2013, dated 2017).

Each structure is given as a SMILES string.

Consider `COc1cccc2c1C(=O)c1c(O)c3c(c(O)c1C2=O)C[C@@](O)(C(=O)CO)C[C@@H]3O[C@H]1C[C@H](N)[C@H](O)[C@H](C)O1` [DOX, doxorubicin], for which the “subcellular localization of DOX” value is “concentrated in the nuclei”.
